Measurements taken from US10611740B2, “Aryl dihydro-2H-benzo[b][1,4]oxazine sulfonamide and related compounds for use as agonists of RORγ and the treatment of disease” (Lycera Corporation, priority 2015, dated 2020).

Assays:
[1] = target: T1, RORγ-LBD (Homo sapiens, UniProt P51449); assay: RORγ-Ligand Binding Domain (LBD) TR-FRET Assay; format: biochemical;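 on TR-FRET Assay Max Response: 665/615 nm ratio relative to signal without ursolic acid or compound set at 100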
T1 construct: made in house; host or cells: SF9 cells (baculovirus)
T1 sequence (P51449 269-508 limits assumed): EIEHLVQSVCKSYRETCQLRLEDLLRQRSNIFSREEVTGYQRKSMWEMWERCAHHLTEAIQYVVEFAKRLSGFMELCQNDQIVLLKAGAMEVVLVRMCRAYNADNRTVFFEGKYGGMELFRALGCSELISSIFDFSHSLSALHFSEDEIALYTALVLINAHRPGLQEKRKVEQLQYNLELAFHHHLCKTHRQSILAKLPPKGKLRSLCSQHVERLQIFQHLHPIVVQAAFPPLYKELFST
Summary of the method: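 His-tagged RORγ-LBD from SF9 baculovirus lysate, ~3 nM final, in 50 mM Tris pH 7.0, 50 mM KCl, 1 mM EDTA, 0.1 mM DTT, 0.01% BSA. Biotinylated SRC1 LXXLL peptide at 200 nM final with 2 μM ursolic acid; TR-FRET read-out, 1% DMSO final.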

[2] = target: T2, Gal4-RORγ-LBD (Homo sapiens, UniProt P51449); assay: Gal4-RORγ Luciferase Reporter Assay in HEK-293T Cells; format: cell-based; conditions: HEK-293 cells, luciferase reporter, with 2 μM ursolic acid
T2 construct: expressed in transfected cells; host or cells: HEK-293 cells (pcDNA3.1neo plasmid)
T2 sequence (P51449 269-508 limits assumed): T1 sequence (P51449 269-508 limits assumed)
Summary of the method: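 HEK-293 cells were transiently co-transfected with Gal4-RORγ-LBD and pGL4.31 Gal4-luciferase, with ursolic acid added at 2 μM final. Compounds were incubated overnight at 37° C. in 0.2% DMSO and luminescence read with One-Glo. Max Response is the upper plateau of a 4-parameter logistic fit, with signal lacking ursolic acid or compound set to 100.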

SMILES	EC50 [1] [nM]	EC50 [2] [nM]	TR-FRET Assay Max Response [1]	Gal4-RORγ Assay Max Response [2]
O=C(O)CNC(=O)NCC[C@H]1CN(S(=O)(=O)c2cccc(C(F)(F)F)c2)c2cc(-c3cc(F)ccc3F)ccc2O1 [Compound 23X, (S)-((2-(6-(2,5-difluorophenyl)-4-((3-(trifluoromethyl)phenyl)-sulfonyl)-3,4-dihydro-2H-benzo[b][1,4]oxazin-2-yl)ethyl)carbamoyl)glycine]	< 500	500 to 5000	**** (The symbol “****” indicates a value greater than 200)	** (The symbol “**” indicates a value in the range of greater than 90 to 150)
CN(CCC(=O)O)C(=O)NCC[C@H]1CN(S(=O)(=O)c2cccc(C(F)(F)F)c2)c2cc(-c3cc(F)ccc3F)ccc2O1 [Compound 23Y, (S)-3-(3-(2-(6-(2,5-difluoro-phenyl)-4-((3-(trifluoromethyl)-phenyl)sulfonyl)-3,4-dihydro-2H-benzo[b][1,4]oxazin-2-yl)ethyl)-1-methylureido)propanoic acid]	< 500	< 500	*** (The symbol “***” indicates a value in the range of greater than 150 to 200)	** (The symbol “**” indicates a value in the range of greater than 90 to 150)
Cc1cnc(-c2ccc3c(c2)N(S(=O)(=O)c2cccc(C(F)(F)F)c2)C[C@H](CCC(=O)O)O3)o1 [Compound 26, (S)-3-(6-(5-methyloxazol-2-yl)-4-((3-(trifluoromethyl)phenyl)sulfonyl)-3,4-dihydro-2H-benzo[b][1,4]oxazin-2-yl)propanoic acid]	500 to 5000	500 to 5000	*** (The symbol “***” indicates a value in the range of greater than 150 to 200)	* (The symbol “*” indicates a value in the range of 25 to 90)
NCC[C@H]1CN(S(=O)(=O)c2cccc(C(F)(F)F)c2)c2cc(-c3cc(F)ccc3F)ccc2O1 [Compound 27, (S)-2-(6-(2,5-difluorophenyl)-4-((3-(trifluoromethyl)phenyl)sulfonyl)-3,4-dihydro-2H-benzo[b][1,4]oxazin-2-yl)ethan-1-amine]	< 500	500 to 5000	**** (The symbol “****” indicates a value greater than 200)	* (The symbol “*” indicates a value in the range of 25 to 90)
O=c1[nH]nc(CC[C@H]2CN(S(=O)(=O)c3cccc(C(F)(F)F)c3)c3cc(-c4cccc(C(F)(F)F)n4)ccc3O2)o1 [Compound 28A, (S)-5-(2-(4-((3-(trifluoromethyl)-phenyl)sulfonyl)-6-(6-(trifluoromethyl)pyridin-2-yl)-3,4-dihydro-2H-benzo[b][1,4]oxazin-2-yl)ethyl)-1,3,4-oxadiazol-2(3H)-one]	< 500	< 500	**** (The symbol “****” indicates a value greater than 200)	** (The symbol “**” indicates a value in the range of greater than 90 to 150)
CN(C)c1cccc(-c2ccc3c(c2)N(S(=O)(=O)c2cccc(C(F)(F)F)c2)C[C@H](CCc2n[nH]c(=O)o2)O3)n1 [Compound 28B, (S)-5-(2-(6-(6-(dimethylamino)-pyridin-2-yl)-4-((3-(trifluoro-methyl)phenyl)sulfonyl)-3,4-dihydro-2H-benzo[b][1,4]oxazin-2-yl)ethyl)-1,3,4-oxadiazol-2(3H)-one]	< 500	< 500	**** (The symbol “****” indicates a value greater than 200)	** (The symbol “**” indicates a value in the range of greater than 90 to 150)
O=c1[nH]nc(CC[C@H]2CN(S(=O)(=O)c3cccc(C(F)(F)F)c3)c3cc(-c4cncc(C(F)(F)F)c4)ccc3O2)o1 [Compound 28C, (S)-5-(2-(4-((3-(trifluoromethyl)-phenyl)sulfonyl)-6-(5-(trifluoromethyl)pyridin-3-yl)-3,4-dihydro-2H-benzo[b][1,4]oxazin-2-yl)ethyl)-1,3,4-oxadiazol-2(3H)-one]	< 500	< 500	**** (The symbol “****” indicates a value greater than 200)	* (The symbol “*” indicates a value in the range of 25 to 90)

Continued, in another order:

EC50 [1] [nM]	EC50 [2] [nM]	SMILES	TR-FRET Assay Max Response [1]	Gal4-RORγ Assay Max Response [2]
< 500	< 500	O=C(O)C1CCN(C(=O)CC[C@H]2CN(S(=O)(=O)c3cccc(C(F)(F)F)c3)c3cc(-c4cccc(F)c4F)ccc3O2)CC1 [Compound 23P, (S)-1-(3-(6-(2,3-difluorophenyl)-4-((3-(trifluoromethyl)-phenyl)sulfonyl)-3,4-dihydro-2H-benzo[b][1,4]oxazin-2-yl)propanoyl)piperidine-4-carboxylic acid]	**** (The symbol “****” indicates a value greater than 200)	*** (The symbol “***” indicates a value in the range of greater than 150 to 200)
< 500	500 to 5000	O=C(O)C1CCN(C(=O)NC[C@H]2CN(S(=O)(=O)c3cccc(C(F)(F)F)c3)c3cc(-c4cc(F)ccc4F)ccc3O2)CC1 [Compound 23Q, (S)-1-(((6-(2,5-difluorophenyl)-4-((3-(trifluoromethyl)-phenyl)sulfonyl)-3,4-dihydro-2H-benzo[b][1,4]oxazin-2-yl)methyl)carbamoyl)piperidine-4-carboxylic acid]	**** (The symbol “****” indicates a value greater than 200)	*** (The symbol “***” indicates a value in the range of greater than 150 to 200)
< 500	500 to 5000	CN(CCC(=O)O)C(=O)NC[C@H]1CN(S(=O)(=O)c2cccc(C(F)(F)F)c2)c2cc(-c3cc(F)ccc3F)ccc2O1 [Compound 23R, (S)-3-(3-((6-(2,5-difluorophenyl)-4-((3-(trifluoromethyl)phenyl)-sulfonyl)-3,4-dihydro-2H-benzo[b][1,4]oxazin-2-yl)methyl)-1-methylureido)propanoic acid]	**** (The symbol “****” indicates a value greater than 200)	** (The symbol “**” indicates a value in the range of greater than 90 to 150)
< 500	500 to 5000	O=C(CC[C@H]1CN(S(=O)(=O)c2cccc(C(F)(F)F)c2)c2cc(-c3cc(F)ccc3F)ccc2O1)NC[C@H](O)C(=O)O [Compound 23S, (S)-3-(3-((S)-6-(2,5-difluoro-phenyl)-4-((3-(trifluoromethyl)-phenyl)sulfonyl)-3,4-dihydro-2H-benzo[b][1,4]oxazin-2-yl)propanamido)-2-hydroxypropanoic acid]	**** (The symbol “****” indicates a value greater than 200)	** (The symbol “**” indicates a value in the range of greater than 90 to 150)
< 500	< 500	O=C(O)C1CCN(C(=O)NCC[C@H]2CN(S(=O)(=O)c3cccc(C(F)(F)F)c3)c3cc(-c4cc(F)ccc4F)ccc3O2)CC1 [Compound 23T, (S)-1-((2-(6-(2,5-difluorophenyl)-4-((3-(trifluoromethyl)phenyl)-sulfonyl)-3,4-dihydro-2H-benzo[b][1,4]oxazin-2-yl)ethyl)carbamoyl)piperidine-4-carboxylic acid]	**** (The symbol “****” indicates a value greater than 200)	** (The symbol “**” indicates a value in the range of greater than 90 to 150)
< 500	< 500	O=C(O)[C@H]1CCCN1C(=O)NCC[C@H]1CN(S(=O)(=O)c2cccc(C(F)(F)F)c2)c2cc(-c3cc(F)ccc3F)ccc2O1 [Compound 23U, ((2-((S)-6-(2,5-difluorophenyl)-4-((3-(trifluoromethyl)phenyl)-sulfonyl)-3,4-dihydro-2H-benzo[b][1,4]oxazin-2-yl)ethyl)carbamoyl)-D-proline]	**** (The symbol “****” indicates a value greater than 200)	** (The symbol “**” indicates a value in the range of greater than 90 to 150)
< 500	500 to 5000	O=C(O)[C@@H]1CCCN1C(=O)NCC[C@H]1CN(S(=O)(=O)c2cccc(C(F)(F)F)c2)c2cc(-c3cc(F)ccc3F)ccc2O1 [Compound 23V, ((2-((S)-6-(2,5-difluorophenyl)-4-((3-(trifluoromethyl)phenyl)-sulfonyl)-3,4-dihydro-2H-benzo[b][1,4]oxazin-2-yl)ethyl)carbamoyl)-L-proline]	**** (The symbol “****” indicates a value greater than 200)	** (The symbol “**” indicates a value in the range of greater than 90 to 150)
< 500	< 500	CN(CC(=O)O)C(=O)NCC[C@H]1CN(S(=O)(=O)c2cccc(C(F)(F)F)c2)c2cc(-c3cc(F)ccc3F)ccc2O1 [Compound 23W, (S)-N-((2-(6-(2,5-difluorophenyl)-4-((3-(trifluoromethyl)phenyl)-sulfonyl)-3,4-dihydro-2H-benzo[b][1,4]oxazin-2-yl)ethyl)carbamoyl)-N-methylglycine]	**** (The symbol “****” indicates a value greater than 200)	** (The symbol “**” indicates a value in the range of greater than 90 to 150)
